Results as given in US8952024B2, “Herbicidal pyrimidone derivatives” (E I du Pont de Nemours and Company, priority 2009, dated 2015).

Columns and labels:
Experiment in all cases: Test D pre-/postemergence plant response
Type in all cases: in vivo
[1] = tested on: groundsel (common groundsel, Senecio vulgaris); settings: Postemergence
In short: (§1)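 Seeds in loam–sand blend treated preemergence, and plants at 1- to 4-leaf stage (2–18 cm) treated postemergence, with compounds in non-phytotoxic solvent with surfactant. Greenhouse for 14–21 days, then visual rating against controls, 0 (no effect) to 100 (complete control).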

[2] = tested on: large crabgrass (Digitaria sanguinalis); settings: Postemergence
In short: as §1

kochia (Kochia scoparia) = settings: Postemergence
In short: as §1

[3] = tested on: dallisgrass (Paspalum dilatatum); settings: Postemergence
In short: as §1

[4] = tested on: purslane (common purslane, Portulaca oleracea); settings: Postemergence
In short: as §1

[5] = tested on: guineagrass (Panicum maximum); settings: Postemergence
In short: as §1

[6] = tested on: morningglory (pitted morningglory, Ipomoea lacunosa); settings: Postemergence
In short: as §1

[7] = tested on: johnsongrass (Sorghum halepense); settings: Postemergence
In short: as §1

[8] = tested on: chickweed (common chickweed, Stellaria media); settings: Postemergence
In short: as §1

[9] = tested on: bermudagrass (Cynodon dactylon); settings: Postemergence, scale 0 to 100 (0 no effect, 100 complete control)
In short: as §1

[10] = tested on: nutsedge (purple nutsedge, Cyperus rotundus); settings: Postemergence
In short: as §1

[11] = tested on: goosegrass (Eleusine indica); settings: Postemergence
In short: as §1

[12] = tested on: signalgrass (broadleaf signalgrass, Brachiaria platyphylla); settings: Postemergence
In short: as §1

[13] = tested on: sandbur (southern sandbur, Cenchrus echinatus); settings: Postemergence
In short: as §1

[14] = tested on: field bindweed (Convolvulus arvensis); settings: Postemergence
In short: as §1

[15] = tested on: mallow (common mallow, Malva sylvestris); settings: Postemergence
In short: as §1

[16] = tested on: bluegrass (annual bluegrass, Poa annua); settings: Postemergence, scale 0 to 100 (0 no effect, 100 complete control)
In short: as §1

[17] = tested on: quackgrass (Elytrigia repens); settings: Postemergence
In short: as §1

[18] = 62 g ai/ha, scale 0 to 100 (0 no effect, 100 complete control)
[19] = 125 g ai/ha, scale 0 to 100 (0 no effect, 100 complete control)
[20] = 250 g ai/ha, scale 0 to 100 (0 no effect, 100 complete control)

COCCn1c(-c2cccc(F)c2)ncc(C(=O)C2=C(O)C3CCC(C3)C2=O)c1=O (stereo not drawn) [Compound 235]
Plant response rating, Groundsel ([1]; 31 g ai/ha, scale 0 to 100): 100 | Plant response rating, Groundsel [1, 18]: 100 | Plant response rating, Groundsel [1, 19]: 100 | Plant response rating, Groundsel [1, 20]: 100 | Plant response rating, Crabgrass, Large ([2]; 31 g ai/ha, scale 0 to 100): 70 | Plant response rating, Crabgrass, Large [2, 18]: 75 | Plant response rating, Crabgrass, Large [2, 19]: 75 | Plant response rating, Crabgrass, Large [2, 20]: 80 | Plant response rating, Kochia (kochia (Kochia scoparia); 31 g ai/ha, scale 0 to 100): 20 | Plant response rating, Kochia (kochia (Kochia scoparia); [18]): 60 | Plant response rating, Kochia (kochia (Kochia scoparia); [19]): 70 | Plant response rating, Kochia (kochia (Kochia scoparia); [20]): 85 | Plant response rating, Dallisgrass ([3]; 31 g ai/ha, scale 0 to 100): 70 | Plant response rating, Dallisgrass [3, 18]: 75 | Plant response rating, Dallisgrass [3, 19]: 80 | Plant response rating, Dallisgrass [3, 20]: 80 | Plant response rating, Purslane ([4]; 31 g ai/ha, scale 0 to 100): 60 | Plant response rating, Purslane [4, 18]: 60 | Plant response rating, Purslane [4, 19]: 60 | Plant response rating, Purslane [4, 20]: 70 | Plant response rating, Guineagrass ([5]; 31 g ai/ha, scale 0 to 100): 75 | Plant response rating, Guineagrass [5, 18]: 75 | Plant response rating, Guineagrass [5, 19]: 75 | Plant response rating, Guineagrass [5, 20]: 75 | Plant response rating, Morningglory ([6]; 31 g ai/ha, scale 0 to 100): 75 | Plant response rating, Morningglory [6, 18]: 75 | Plant response rating, Morningglory [6, 19]: 95 | Plant response rating, Morningglory [6, 20]: 95 | Plant response rating, Johnsongrass ([7]; 31 g ai/ha, scale 0 to 100): 70 | Plant response rating, Johnsongrass [7, 18]: 70 | Plant response rating, Johnsongrass [7, 19]: 85 | Plant response rating, Johnsongrass [7, 20]: 85 | Plant response rating, Chickweed ([8]; 31 g ai/ha, scale 0 to 100): 5 | Plant response rating, Chickweed [8, 18]: 30 | Plant response rating, Chickweed [8, 19]: 60 | Plant response rating, Chickweed [8, 20]: 70 | Plant response rating, Bermudagrass ([9]; 31 g ai/ha): 80 | Plant response rating, Bermudagrass ([9]; 62 g ai/ha): 95 | Plant response rating, Bermudagrass ([9]; 125 g ai/ha): 95 | Plant response rating, Bermudagrass ([9]; 250 g ai/ha): 95 | Plant response rating, Nutsedge, Purple ([10]; 31 g ai/ha, scale 0 to 100): 5 | Plant response rating, Nutsedge, Purple [10, 18]: 5 | Plant response rating, Nutsedge, Purple [10, 19]: 30 | Plant response rating, Nutsedge, Purple [10, 20]: 40 | Plant response rating, Goosegrass ([11]; 31 g ai/ha, scale 0 to 100): 75 | Plant response rating, Goosegrass [11, 18]: 75 | Plant response rating, Goosegrass [11, 19]: 75 | Plant response rating, Goosegrass [11, 20]: 75 | Plant response rating, Signalgrass ([12]; 31 g ai/ha, scale 0 to 100): 65 | Plant response rating, Signalgrass [12, 18]: 90 | Plant response rating, Signalgrass [12, 19]: 90 | Plant response rating, Signalgrass [12, 20]: 95 | Plant response rating, Sandbur ([13]; 31 g ai/ha, scale 0 to 100): 75 | Plant response rating, Sandbur [13, 18]: 75 | Plant response rating, Sandbur [13, 19]: 75 | Plant response rating, Sandbur [13, 20]: 75 | Plant response rating, Field Bindweed ([14]; 31 g ai/ha, scale 0 to 100): 60 | Plant response rating, Field Bindweed [14, 18]: 65 | Plant response rating, Field Bindweed [14, 19]: 65 | Plant response rating, Field Bindweed [14, 20]: 70 | Plant response rating, Mallow ([15]; 31 g ai/ha, scale 0 to 100): 10 | Plant response rating, Mallow [15, 18]: 50 | Plant response rating, Mallow [15, 19]: 70 | Plant response rating, Mallow [15, 20]: 70 | Plant response rating, Bluegrass ([16]; 31 g ai/ha): 5 | Plant response rating, Bluegrass ([16]; 62 g ai/ha): 20 | Plant response rating, Bluegrass ([16]; 125 g ai/ha): 35 | Plant response rating, Bluegrass ([16]; 250 g ai/ha): 50 | Plant response rating, Quackgrass ([17]; 31 g ai/ha, scale 0 to 100): 5 | Plant response rating, Quackgrass [17, 18]: 30 | Plant response rating, Quackgrass [17, 19]: 40 | Plant response rating, Quackgrass [17, 20]: 70
